Measurements taken from US11779602B2, “Methods of use for CAR T cells” (ENDOCYTE, INC., priority 2018, dated 2023).

Test system: MDA-MB-231 tumors
Assay: EC17/E2-CAR T-cell therapy in NSG mice with and without MDA-MB-231 tumors
Format: in vivo
Procedure: MDA-MB-231 tumor cells were grown in folate-deficient RPMI 1640 with 5-10% FBS at 37° C. in a 5% CO2 humidified atmosphere. MDA-MB-231 tumor cells were inoculated subcutaneously at 2.5×10^6 cells per animal. Only […] mice were inoculated and the remaining 22 mice were kept tumor-free.
EGFRt-sorted anti-FITC E2 scFv-CAR T cells were frozen in a T-cell freezing medium. Vials of frozen CAR-T cells were immediately stored at −80° C. The CAR-T cells were quickly thawed at 37° C., washed twice with PBS, and used for animal injection at 10 million viable EGFRt+ E2 CAR-T cells (CD4/CD8 at ˜1:1) per animal. A small aliquot was taken on the day infusion for flow cytometric analysis of E2-CAR T-cell phenotypes.
Mouse blood samples were processed for plasma and stored at −20° C. until use. A human TH1 cytokine panel (Biolegend, Cat. No. 740009) and a human hematopoietic stem cell cytokine panel (Biolegend, Cat. No. 740610) was used to detect human cytokines in the mouse blood. A mouse 13-plex inflammatory cytokine panel (Biolengend, No. 740150) was used to detect mouse cytokines. All analyses were performed per the manufacturer's instructions.
Whole blood cell analysis: Plasma was removed from predetermined volumes of whole EDTA treated blood and RBCs were lysed with RBC lysis solution. […] Determination of the concentration of CAR T cells in each blood sample was calculated according to Invitrogen's instructions. CAR T cells were identified as human CD3ε+ EGFRt+ events and easily distinguished and counted using the Kaluza™ flow cytometry software. The number of CAR T cells in the circulation of each infused mouse was then represented on the graphs as the total number of CAR T cells per 100 μL of whole blood analyzed. Statistical significance was determined by utilizing an unpaired, two-tailed, students t-test with significance set at p<0.05. […]

NC1=NC2N=CC(CNc3ccc(C(=O)N[C@@H](CCC(=O)NCCNC(=S)Nc4ccc(-c5c6ccc(=O)cc-6oc6cc(O)ccc56)c(C(=O)O)c4)C(=O)O)cc3)=NC2C(=O)N1 (stereo partly shown) [EC17, FA-(γ)-ethylenediamine-FITC]
IFN-γ production, tumor-bearing vs tumor-free mice (10 million E2 CAR-T cells, EC17 500 nmol/kg days 2 and 10, plasma 20 hours after second dose): 23 fold | increase in circulating E2 CAR T cells per 100 uL whole blood vs cohorts without EC17 (cohorts which received EC17 stimulation): more than 10 fold | CAR-T cell expansion by FACS in tumor-free mice (post EC17 SIW500×2 doses): no detectable CAR-T cell expansion | cytokine production (IL2, IFN-γ, IL-10) in tumor-bearing mice (with vs without EC17 dose): EC17-dependent
